Reference: patent publication US9303042B2, “Triazolothienopyrimidine compound inhibitors of urea transporters and methods of using inhibitors” (The Regents of the University of California, priority 2012, dated 2016)

How the values were obtained:
[1] = biological target: T1, TMEM16A (Homo sapiens, UniProt Q5XXA6); test: TMEM16A calcium-activated chloride conductance by short-circuit current; assay type: cell-based; settings: 100 μM
T1 construct: expressed in transfected cells
T1 sequence (Q5XXA6 1-986): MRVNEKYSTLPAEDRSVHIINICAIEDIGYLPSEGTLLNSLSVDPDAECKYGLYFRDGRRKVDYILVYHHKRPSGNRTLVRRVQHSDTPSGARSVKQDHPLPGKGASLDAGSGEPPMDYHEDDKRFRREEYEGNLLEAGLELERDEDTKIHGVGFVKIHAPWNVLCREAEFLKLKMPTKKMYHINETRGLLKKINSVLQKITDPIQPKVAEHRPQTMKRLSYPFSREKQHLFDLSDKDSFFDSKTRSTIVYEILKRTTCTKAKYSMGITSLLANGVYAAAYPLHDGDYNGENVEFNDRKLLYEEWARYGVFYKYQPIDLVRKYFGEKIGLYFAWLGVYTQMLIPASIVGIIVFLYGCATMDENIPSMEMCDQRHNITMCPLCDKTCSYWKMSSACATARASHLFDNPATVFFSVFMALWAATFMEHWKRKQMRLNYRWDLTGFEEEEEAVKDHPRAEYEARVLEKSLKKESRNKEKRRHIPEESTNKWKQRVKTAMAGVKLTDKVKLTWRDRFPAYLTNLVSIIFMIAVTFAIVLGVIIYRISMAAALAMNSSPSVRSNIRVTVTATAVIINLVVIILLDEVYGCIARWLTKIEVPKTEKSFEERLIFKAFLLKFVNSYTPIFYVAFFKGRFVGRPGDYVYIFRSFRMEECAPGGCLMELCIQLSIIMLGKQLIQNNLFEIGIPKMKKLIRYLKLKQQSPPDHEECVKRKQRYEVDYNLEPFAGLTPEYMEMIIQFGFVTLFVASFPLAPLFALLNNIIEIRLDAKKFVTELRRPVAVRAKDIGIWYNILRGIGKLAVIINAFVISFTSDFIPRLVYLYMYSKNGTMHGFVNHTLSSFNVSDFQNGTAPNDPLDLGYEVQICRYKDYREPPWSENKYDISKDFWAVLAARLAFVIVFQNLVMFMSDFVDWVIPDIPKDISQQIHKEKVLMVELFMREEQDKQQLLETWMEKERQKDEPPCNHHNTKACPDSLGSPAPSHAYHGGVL
Description: CFTR chloride conductance was measured by short-circuit current analysis in Fisher rat thyroid (FRT) cells stably expressing CFTR, as described (see, e.g., Ma et al., J. Biol. Chem. (2002), supra). CFTR chloride conductance was stimulated by forskolin and inhibited by a thiazolidinone compound that inhibits CFTR (CFTRinh-172). TMEM16A calcium-activated chloride conductance was measured by short-circuit current analysis in FRT cells stably expressing TMEM16A, as described (see, e.g., Namkung et al., J. Biol. Chem. 286:2365-2374, 2011. TMEM16A was stimulated by ATP and inhibited by tannic acid (100 μM). Cytotoxicity was measured in MDCK using the MTT assay [3(4,5-dimethyl-thiazol-2-yl)-2,5-diphenyl tetrazolium bromide] by standard procedures.

[2] = biological target: T2, UT-A1 (Rattus norvegicus, UniProt Q62668); test: Transepithelial urea transport in MDCK cells stably expressing UT-A1; assay type: cell-based; settings: phloretin 100 μM
T2 construct: expressed in transfected cells; host or cells: MDCK cells (MDCK-UT-A1), obtained as described in cited literature
T2 sequence (Q62668 1-929): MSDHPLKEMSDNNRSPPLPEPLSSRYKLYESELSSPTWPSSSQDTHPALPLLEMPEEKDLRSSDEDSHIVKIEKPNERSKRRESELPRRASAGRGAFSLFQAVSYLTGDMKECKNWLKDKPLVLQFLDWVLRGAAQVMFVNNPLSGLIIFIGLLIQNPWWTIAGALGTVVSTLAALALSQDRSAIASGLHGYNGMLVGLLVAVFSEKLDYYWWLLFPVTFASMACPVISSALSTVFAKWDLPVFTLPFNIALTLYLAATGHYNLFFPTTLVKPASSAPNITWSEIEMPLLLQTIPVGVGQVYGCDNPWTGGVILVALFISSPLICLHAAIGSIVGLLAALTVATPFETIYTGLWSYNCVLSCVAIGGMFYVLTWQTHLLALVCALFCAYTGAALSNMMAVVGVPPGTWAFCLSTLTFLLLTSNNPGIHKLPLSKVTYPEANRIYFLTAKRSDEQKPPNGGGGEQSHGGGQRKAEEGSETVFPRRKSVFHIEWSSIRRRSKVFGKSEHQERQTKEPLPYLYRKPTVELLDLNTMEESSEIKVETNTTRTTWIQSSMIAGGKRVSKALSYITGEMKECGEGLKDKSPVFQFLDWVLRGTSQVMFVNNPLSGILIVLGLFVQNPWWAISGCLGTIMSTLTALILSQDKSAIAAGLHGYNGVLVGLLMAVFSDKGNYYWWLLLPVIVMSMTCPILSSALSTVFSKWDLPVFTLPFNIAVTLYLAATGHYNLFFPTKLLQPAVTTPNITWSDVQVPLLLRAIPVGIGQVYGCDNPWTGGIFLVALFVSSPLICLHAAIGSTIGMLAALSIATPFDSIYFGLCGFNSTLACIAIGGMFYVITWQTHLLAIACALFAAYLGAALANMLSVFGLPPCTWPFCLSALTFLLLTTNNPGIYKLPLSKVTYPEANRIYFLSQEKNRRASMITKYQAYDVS
Description: (§1) UT-B selectivity and cytotoxicity were studied. Because of sequence similarities between UT-B and UT-A isoforms, UT-A inhibition was measured. Transepithelial urea transport was measured in MDCK cells stably expressing UT-A1, UT-A3, and UT-B. UT-A1 and UT-A3 are cAMP-regulated urea transporters expressed in kidney tubule epithelia (see, e.g., Frohlich et al., Am. J. Physiol. Cell Physiol. 291:C600-606 (2006); Tickle et al., Am. J. Physiol. Regul. Integr. Comp Physiol 0.297: R323-329 (2009); Stewart et al., Am. J. Physiol. Renal Physiol. 292:F1157-63 (2006)). MDCK cells were cultured on collagen-coated porous filters for measurement of urea accumulation in the apical solution following addition of urea to the basolateral solution.
(§2) cDNAs encoding mouse UT-A3 and UT-B were cloned into pcDNA3.1 and used to generate stably transfected MDCK cell lines. MDCK cells stably expressing rat UT-A1 (MDCK-UT-A1) (see, e.g., Frohlich et al., supra) were obtained as described (see, e.g., Levin et al., FASEB J., supra). Cells were cultured in DMEM containing 10% FBS and 0.5 mg/mL G418. […] Urea flux in the basolateral-to-apical direction across unstimulated and forskolin-stimulated cell layers was measured in response to a 15-mM urea gradient. […]

[3] = biological target: T3, UT-A3 (Mus musculus, UniProt Q8R4T9); test: Transepithelial urea transport in MDCK cells stably expressing UT-A3; assay type: cell-based; settings: phloretin 100 μM
T3 construct: expressed in transfected cells
T3 sequence (Q8R4T9 1-461 isoform Q8R4T9-3): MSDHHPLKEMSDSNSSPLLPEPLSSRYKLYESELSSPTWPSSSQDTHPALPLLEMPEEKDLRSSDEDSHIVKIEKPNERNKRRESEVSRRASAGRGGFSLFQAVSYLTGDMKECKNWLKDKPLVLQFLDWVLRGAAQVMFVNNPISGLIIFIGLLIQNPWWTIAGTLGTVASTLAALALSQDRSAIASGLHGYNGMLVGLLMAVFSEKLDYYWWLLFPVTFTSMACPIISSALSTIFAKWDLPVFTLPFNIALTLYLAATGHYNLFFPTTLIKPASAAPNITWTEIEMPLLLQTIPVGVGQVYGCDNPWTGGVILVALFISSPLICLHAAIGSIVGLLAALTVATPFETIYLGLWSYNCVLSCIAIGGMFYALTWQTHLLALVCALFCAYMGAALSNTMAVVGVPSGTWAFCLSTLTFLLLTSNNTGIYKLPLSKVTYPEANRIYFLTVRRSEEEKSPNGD
Description: as §1, §2

[4] = system: UT; settings: literature; cited from earlier work
[5] = biological target: T4, UT-B (Mus musculus, UniProt Q8VHL0); test: Transepithelial urea transport in MDCK cells stably expressing UT-B; assay type: cell-based; settings: phloretin 100 μM
T4 sequence (Q8VHL0 1-384): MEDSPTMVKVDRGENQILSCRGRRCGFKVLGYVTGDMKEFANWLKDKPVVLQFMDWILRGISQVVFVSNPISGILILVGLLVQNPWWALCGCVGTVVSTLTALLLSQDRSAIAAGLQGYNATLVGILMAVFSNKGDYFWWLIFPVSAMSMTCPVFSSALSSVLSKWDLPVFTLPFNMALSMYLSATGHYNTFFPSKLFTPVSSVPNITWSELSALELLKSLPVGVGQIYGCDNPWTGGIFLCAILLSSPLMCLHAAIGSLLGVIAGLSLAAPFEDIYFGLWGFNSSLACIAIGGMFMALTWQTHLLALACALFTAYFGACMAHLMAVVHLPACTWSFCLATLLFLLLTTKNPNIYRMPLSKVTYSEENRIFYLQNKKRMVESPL
Description: as §1, §2

ATP-induced current (TMEM16A) [1]	Structure (SMILES)	UT-facilitated urea transport (UT-A1) [2]	UT-facilitated urea transport (UT-A3) [3]	concentration exhibiting activity [4] [mM]	UT-facilitated urea transport (UT-B) [5]
blocked	O=C(OC[C@H]1O[C@@H](OC(=O)c2cc(O)c(O)c(OC(=O)c3cc(O)c(O)c(O)c3)c2)[C@H](OC(=O)c2cc(O)c(O)c(OC(=O)c3cc(O)c(O)c(O)c3)c2)[C@@H](OC(=O)c2cc(O)c(O)c(OC(=O)c3cc(O)c(O)c(O)c3)c2)[C@@H]1OC(=O)c1cc(O)c(O)c(OC(=O)c2cc(O)c(O)c(O)c2)c1)c1cc(O)c(O)c(OC(=O)c2cc(O)c(O)c(O)c2)c1 [tannic acid, reference compound]				
	O=C(CCc1ccc(O)cc1)c1c(O)cc(O)cc1O [phloretin, reference compound]	inhibited	inhibited	> 0.5	inhibited
